Experimental data: patent US20250312499A1, “KISSPEPTIN RECEPTOR (KISS1R) TARGETED THERAPEUTICS AND USES THEREOF” (priority 2024, published 2025)
Numbered stars: 1 amine (or outer) side, 2 acyl side, 3 side chain; on linkers, the order of the positions; unused ones are H or OH. Square brackets hold non-standard residues; d marks the D form. Peptide text beside a SMILES is read from it. * marks the point of attachment. DOTA = O=C(O)CN1CCN(CC(=O)O)CCN(CC(=O)*)CCN(CC(=O)O)CC1; Gly(N-(3-F-4-Me-benzyl)) = Cc1ccc(CNCC(=O)*)cc1F; Propanoyl(3-(MeO(CH2CH2O)2)) = COCCOCCOCCC(=O)*; Gly(Nα-4-MeO-benzyl) = COc1ccc(CNCC(=O)*)cc1; X4 = O=C(c1ccc(-c2ccccc2OCCCN[*:1])cc1)[*:2]; Butanoyl(4-(4-MePh)) = Cc1ccc(CCCC(=O)*)cc1; Api(1-amidino) = N=C(N)N1CCC(N)(C(=O)O)CC1; d(γGlu) = O=C(O)[C@@H](CCC(=O)[*:2])N[*:1]; X3 = CNC(=N)N1CCC(N[*:1])(C(=O)[*:2])CC1; Phe(3-F) = N[C@@H](Cc1cccc(F)c1)C(=O)O; 2Nal = N[C@@H](Cc1ccc2ccccc2c1)C(=O)O; d2Nal = N[C@H](Cc1ccc2ccccc2c1)C(=O)O; Trx = NC[C@H]1CC[C@H](C(=O)O)CC1; X1 = O=C(CN1CCC(N[*:1])CC1)[*:2]; 4Pal = N[C@@H](Cc1ccncc1)C(=O)O; d4Pal = N[C@H](Cc1ccncc1)C(=O)O; Cha = N[C@@H](CC1CCCCC1)C(=O)O; X5 = O=C(CNCc1ccc2ccccc2c1)*; Api = NC1(C(=O)O)CCNCC1; Ahx = NCCCCCC(=O)O; azaGly = NNC(=O)O

Target: human kisspeptin receptor (Homo sapiens (Human), UniProt Q969F8)
Assay: Human KISS1R binding assay (membrane competition binding)
Conditions: 90 min at room temperature; competition with 0.2 nM [125I]-metastin (45-54); Flp-In T-Rex 293 kisspeptin membranes; metal complexes nonradioactive Ga, In, Lu; read-out: hKiSSR Binding Ki (90 min)
How it was run: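 Radioligand competition: 0.2 nM [125I]-metastin (45-54) displaced by test ligand (usually 0–10,000 nM) over 90 min at room temperature, pH 7.4 buffer with 0.1% BSA. Receptor source is crude membrane (5–10 μg) from tetracycline-induced Flp-In T-Rex 293 cells. Bound label filtered and counted; Ki from non-linear regression.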

human kisspeptin receptor, sequence (Q969F8 whole entry): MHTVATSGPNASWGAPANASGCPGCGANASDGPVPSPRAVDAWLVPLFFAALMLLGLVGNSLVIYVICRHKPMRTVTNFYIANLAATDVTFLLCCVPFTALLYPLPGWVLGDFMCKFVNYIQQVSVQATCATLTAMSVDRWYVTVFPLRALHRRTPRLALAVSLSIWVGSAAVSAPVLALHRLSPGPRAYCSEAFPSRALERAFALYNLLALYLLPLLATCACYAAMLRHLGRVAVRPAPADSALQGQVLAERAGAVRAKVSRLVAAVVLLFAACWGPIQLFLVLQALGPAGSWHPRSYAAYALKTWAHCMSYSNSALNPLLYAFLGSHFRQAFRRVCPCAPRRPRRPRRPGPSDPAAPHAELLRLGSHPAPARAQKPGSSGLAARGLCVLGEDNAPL

Cc1ccc(CNCC(=O)N2CCC(NC(=O)[C@H](CC(C)C)NC(=O)NNC(=O)[C@H](CC3CCCCC3)NC(=O)[C@@H](NC(=O)[C@H](CC(N)=O)NC(=O)[C@@H](Cc3ccncc3)NC(=O)[C@@H](Cc3ccc(O)cc3)NC(=O)CN3CCN(CC(=O)O)CCN(CC(=O)O)CCN(CC(=O)O)CC3)[C@@H](C)O)(C(=O)N[C@@H](Cc3c[nH]c4ccccc34)C(N)=O)CC2)cc1F [Compound 315] ({DOTA}-[dY][d4Pal]NT[Cha][azaGly]L[Api](Gly(N-(3-F-4-Me-benzyl)))W-NH2) and Cc1ccc(CNCC(=O)N2CCC(NC(=O)[C@H](CC(C)C)NC(=O)NNC(=O)[C@H](CC3CCCCC3)NC(=O)[C@@H](NC(=O)[C@H](CC(N)=O)NC(=O)[C@@H](Cc3ccncc3)NC(=O)CCCCCNC(=O)CN3CCN(CC(=O)O)CCN(CC(=O)O)CCN(CC(=O)O)CC3)[C@@H](C)O)(C(=O)N[C@@H](Cc3c[nH]c4ccccc34)C(N)=O)CC2)cc1F [Compound 314] ({DOTA-Ahx}-[d4Pal]NT[Cha][azaGly]L[Api](Gly(N-(3-F-4-Me-benzyl)))W-NH2) cannot be ordered by Ki: less than 10 nM for the first, less than 10 nM for the second.

Compared with COCCOCCOCCC(=O)N[C@H](Cc1ccc(O)cc1)C(=O)N[C@@H](CCCCNC(=O)CN1CCN(CC(=O)O)CCN(CC(=O)O)CCN(CC(=O)O)CC1)C(=O)N[C@@H](CC(N)=O)C(=O)N[C@H](C(=O)N[C@@H](Cc1ccccc1)C(=O)NNC(=O)N[C@@H](CC(C)C)C(=O)NC1(C(=O)N[C@@H](Cc2c[nH]c3ccccc23)C(N)=O)CCN(C(=N)N)CC1)[C@@H](C)O [Compound 197] ({Propanoyl(3-(MeO(CH2CH2O)2))}-[dY]K(DOTA)NTF[azaGly]L[Api(1-amidino)]W-NH2), CNC(=N)N1CCC(NC(=O)[C@H](CC(C)C)NC(=O)NNC(=O)[C@H](Cc2ccccc2)NC(=O)[C@@H](NC(=O)[C@H](CC(N)=O)NC(=O)[C@@H](Cc2ccc3ccccc3c2)NC(=O)[C@@H](Cc2ccc(O)cc2)NC(=O)CCCCCNC(=O)CN2CCN(CC(=O)O)CCN(CC(=O)O)CCN(CC(=O)O)CC2)[C@@H](C)O)(C(=O)N[C@H](Cc2c[nH]c3ccccc23)C(N)=O)CC1 [Compound 319] ({DOTA-Ahx}-[dY][d2Nal]NTF[azaGly]L[X3][dW]-NH2) is higher in Ki: less than 10 nM for the first, greater than 100 nM for the second.

Cc1ccc(CNCC(=O)N2CCC(NC(=O)c3ccc(-c4ccccc4)c(OCCNC(=O)[C@H](Cc4ccccc4)NC(=O)CN4CCC(NC(=O)CN5CCN(CC(=O)O)CCN(CC(=O)O)CCN(CC(=O)O)CC5)CC4)c3)(C(=O)N[C@@H](Cc3c[nH]c4ccccc34)C(N)=O)CC2)cc1F [Compound 214] and Cc1ccc(CNCC(=O)N2CCC(NC(=O)[C@H](CC(C)C)NC(=O)NNC(=O)c3ccc(-c4ccccc4OCCCNC(=O)CN4CCN(CC(=O)O)CCN(CC(=O)O)CCN(CC(=O)O)CC4)cc3)(C(=O)N[C@@H](Cc3c[nH]c4ccccc34)C(N)=O)CC2)cc1F [Compound 298] ({DOTA}-[X4][azaGly]L[Api](Gly(N-(3-F-4-Me-benzyl)))W-NH2) cannot be ordered by Ki: less than 10 nM for the first, less than 10 nM for the second.

Compared with CC(C)C[C@H](NC(=O)CNC(=O)[C@H](Cc1ccccc1)NC(=O)CCCCCNC(=O)CN1CCN(CC(=O)O)CCN(CC(=O)O)CCN(CC(=O)O)CC1)C(=O)NC1(C(=O)N[C@@H](Cc2c[nH]c3ccccc23)C(N)=O)CCN(C(=N)N)CC1 [Compound 3] ({DOTA-Ahx}-FGL[Api(1-amidino)]W-NH2), Cc1ccc(CNCC(=O)N2CCC(NC(=O)[C@H](CC(C)C)NC(=O)NNC(=O)[C@H](Cc3ccccc3)NC(=O)CCCCCNC(=O)CN3CCN(CC(=O)O)CCN(CC(=O)O)CCN(CC(=O)O)CC3)(C(=O)N[C@@H](Cc3c[nH]c4ccccc34)C(N)=O)CC2)cc1F [Compound 2] ({DOTA-Ahx}-F[azaGly]L[Api](Gly(N-(3-F-4-Me-benzyl)))W-NH2) is lower in Ki: greater than 100 nM for the first, less than 10 nM for the second.

Cc1ccc(CNCC(=O)N2CCC(NC(=O)[C@H](CC(C)C)NC(=O)NNC(=O)[C@H](Cc3ccccc3)NC(=O)CC[C@@H](NC(=O)CN3CCN(CC(=O)O)CCN(CC(=O)O)CCN(CC(=O)O)CC3)C(=O)O)(C(=O)N[C@@H](Cc3c[nH]c4ccccc34)C(N)=O)CC2)cc1F [Compound 156] ({DOTA-d(γGlu)}-F[azaGly]L[Api](Gly(N-(3-F-4-Me-benzyl)))W-NH2) and Cc1ccc(CNCC(=O)N2CCC(NC(=O)[C@H](CC(C)C)NC(=O)NNC(=O)[C@H](Cc3ccccc3)NC(=O)[C@H]3CC[C@H](CNC(=O)[C@@H](CCC(=O)O)NC(=O)CN4CCN(CC(=O)O)CCN(CC(=O)O)CCN(CC(=O)O)CC4)CC3)(C(=O)N[C@@H](Cc3c[nH]c4ccccc34)C(N)=O)CC2)cc1F [Compound 166] ({DOTA}-[dE][Trx]F[azaGly]L[Api](Gly(N-(3-F-4-Me-benzyl)))W-NH2) cannot be ordered by Ki: less than 10 nM for the first, less than 10 nM for the second.

First: Cc1ccc(CNCC(=O)N2CCC(NC(=O)[C@H](CC(C)C)N[C@H](CNC(=O)[C@H](Cc3ccccc3)NC(=O)CCCCCNC(=O)CN3CCN(CC(=O)O)CCN(CC(=O)O)CCN(CC(=O)O)CC3)C(F)(F)F)(C(=O)N[C@@H](Cc3c[nH]c4ccccc34)C(N)=O)CC2)cc1F [Compound 147]
Second: Cc1ccc(CNCC(=O)N2CCC(NC(=O)[C@H](CC(C)C)NC(=O)NNC(=O)[C@H](Cc3ccccc3)NC(=O)[C@@H](NC(=O)[C@H](CC(N)=O)NC(=O)[C@@H](Cc3c[nH]c4ccccc34)NC(=O)CCCCCNC(=O)CN3CCN(CC(=O)O)CCN(CC(=O)O)CCN(CC(=O)O)CC3)[C@@H](C)O)(C(=O)N[C@@H](Cc3c[nH]c4ccccc34)C(N)=O)CC2)cc1F [Compound 30] ({DOTA-Ahx}-[dW]NTF[azaGly]L[Api](Gly(N-(3-F-4-Me-benzyl)))W-NH2)
The Ki of the first is higher: greater than 100 nM for the first, less than 10 nM for the second.

Cc1ccc(CNCC(=O)N2CCC(NC(=O)[C@H](CC(C)C)NC(=O)NNC(=O)[C@H](Cc3cccc(F)c3)NC(=O)[C@@H](NC(=O)[C@H](CC(N)=O)NC(=O)[C@H](CCC(=O)O)NC(=O)CN3CCC(NC(=O)CN4CCN(CC(=O)O)CCN(CC(=O)O)CCN(CC(=O)O)CC4)CC3)[C@@H](C)O)(C(=O)N[C@@H](Cc3c[nH]c4ccccc34)C(N)=O)CC2)cc1F [Compound 159] ({DOTA}-[X1]ENT[Phe(3-F)][azaGly]L[Api](Gly(N-(3-F-4-Me-benzyl)))W-NH2) and Cc1ccc(CNCC(=O)N2CCC(NC(=O)[C@H](CC(C)C)NC(=O)NNC(=O)[C@H](Cc3cccc(F)c3)NC(=O)[C@@H](NC(=O)[C@H](CC(N)=O)NC(=O)[C@@H](CCC(=O)O)NC(=O)[C@H]3CC[C@H](CNC(=O)CN4CCN(CC(=O)O)CCN(CC(=O)O)CCN(CC(=O)O)CC4)CC3)[C@@H](C)O)(C(=O)N[C@@H](Cc3c[nH]c4ccccc34)C(N)=O)CC2)cc1F [Compound 161] ({DOTA-Trx}-[dE]NT[Phe(3-F)][azaGly]L[Api](Gly(N-(3-F-4-Me-benzyl)))W-NH2) cannot be ordered by Ki: less than 10 nM for the first, less than 10 nM for the second.

First: Cc1ccc(CNCC(=O)N2CCC(NC(=O)[C@H](CC(C)C)NC(=O)NNC(=O)[C@H](Cc3ccncc3)NC(=O)[C@@H](NC(=O)[C@H](CC(N)=O)NC(=O)CN3CCC(NC(=O)CN4CCN(CC(=O)O)CCN(CC(=O)O)CCN(CC(=O)O)CC4)CC3)[C@@H](C)O)(C(=O)N[C@@H](Cc3ccncc3)C(N)=O)CC2)cc1F [Compound 258] ({DOTA}-[X1]NT[4Pal][azaGly]L[Api](Gly(N-(3-F-4-Me-benzyl)))[4Pal]-NH2)
Second: Cc1ccc(CNCC(=O)N2CCC(NC(=O)[C@H](CC(C)C)NC(=O)NNC(=O)[C@H](Cc3ccccc3)NC(=O)[C@@H](NC(=O)[C@H](CC(N)=O)NC(=O)[C@@H](Cc3ccncc3)NC(=O)[C@@H](Cc3ccc(O)cc3)NC(=O)CCCCCNC(=O)CN3CCN(CC(=O)O)CCN(CC(=O)O)CCN(CC(=O)O)CC3)[C@@H](C)O)(C(=O)N[C@@H](Cc3c[nH]c4ccccc34)C(N)=O)CC2)cc1F [Compound 31] ({DOTA-Ahx}-[dY][d4Pal]NTF[azaGly]L[Api](Gly(N-(3-F-4-Me-benzyl)))W-NH2)
The Ki of the first is higher: greater than 100 nM for the first, less than 10 nM for the second.

First: CC(C)C[C@H](NC(=O)NNC(=O)[C@H](Cc1ccccc1)NC(=O)[C@@H](NC(=O)[C@H](CC(N)=O)NC(=O)[C@@H](Cc1ccc2ccccc2c1)NC(=O)[C@@H](Cc1ccc(O)cc1)NC(=O)CCCCCNC(=O)CN1CCN(CC(=O)O)CCN(CC(=O)O)CCN(CC(=O)O)CC1)[C@@H](C)O)C(=O)NC1(C(=O)N[C@H](Cc2c[nH]c3ccccc23)C(N)=O)CCN(C(=O)CNCc2ccc3ccccc3c2)CC1 [Compound 376] ({DOTA-Ahx}-[dY][d2Nal]NTF[azaGly]L[Api](X5)[dW]-NH2)
Second: COc1ccc(CNCC(=O)N2CCC(NC(=O)[C@H](CC(C)C)NC(=O)NNC(=O)[C@H](Cc3ccccc3)NC(=O)[C@@H](NC(=O)[C@H](CC(N)=O)NC(=O)[C@@H](Cc3c[nH]c4ccccc34)NC(=O)[C@@H](Cc3ccc(O)cc3)NC(=O)CCCCCNC(=O)CN3CCN(CC(=O)O)CCN(CC(=O)O)CCN(CC(=O)O)CC3)[C@@H](C)O)(C(=O)N[C@@H](Cc3ccncc3)C(N)=O)CC2)cc1 [Compound 293] ({DOTA-Ahx}-[dY][dW]NTF[azaGly]L[Api](Gly(Nα-4-MeO-benzyl))[4Pal]-NH2)
The Ki of the first is higher: 10 to 100 nM for the first, less than 10 nM for the second. The second binds more tightly here.

Cc1ccc(CCCC(=O)NCCCC[C@@H](NC(=O)CCCCCNC(=O)CN2CCN(CC(=O)O)CCN(CC(=O)O)CCN(CC(=O)O)CC2)C(=O)N[C@H](Cc2ccc(O)cc2)C(=O)N[C@H](Cc2ccc3ccccc3c2)C(=O)N[C@@H](CC(N)=O)C(=O)N[C@H](C(=O)N[C@@H](Cc2ccccc2)C(=O)NNC(=O)N[C@@H](CC(C)C)C(=O)NC2(C(=O)N[C@@H](Cc3c[nH]c4ccccc34)C(N)=O)CCN(C(=N)N)CC2)[C@@H](C)O)cc1 [Compound 335] ({DOTA-Ahx}-[dK](Butanoyl(4-(4-MePh)))[dY][d2Nal]NTF[azaGly]L[Api(1-amidino)]W-NH2) and CC(C)C[C@H](NC(=O)NNC(=O)[C@H](Cc1ccccc1)NC(=O)[C@@H](NC(=O)[C@H](CC(N)=O)NC(=O)[C@H](Cc1ccc2ccccc2c1)NC(=O)[C@@H](Cc1ccc(O)cc1)NC(=O)CCCCCNC(=O)CN1CCN(CC(=O)O)CCN(CC(=O)O)CCN(CC(=O)O)CC1)[C@@H](C)O)C(=O)NC1(C(=O)N[C@@H](Cc2ccccc2)C(N)=O)CCN(C(=N)N)CC1 [Compound 277] ({DOTA-Ahx}-[dY][2Nal]NTF[azaGly]L[Api(1-amidino)]F-NH2) cannot be ordered by Ki: less than 10 nM for the first, less than 10 nM for the second.
